Test results: ChEMBL document CHEMBL5113503, “Synthesis and biological evaluation of 4-(4-aminophenyl)-6-methylisoxazolo[3,4-b] pyridin-3-amine covalent inhibitors as potential agents for the treatment of acute myeloid leukemia” (Bioorg Med Chem, 2022)

How the values were obtained:
[1] = target: T1, Receptor-type tyrosine-protein kinase FLT3 (Homo sapiens, UniProt P36888); assay: Inhibition of FLT3 (unknown origin) preincubated with compound for 10 mins followed by substrate addition and measured after 1 hrs by ADP-Glo kinase assay
T1 sequence (P36888 whole entry): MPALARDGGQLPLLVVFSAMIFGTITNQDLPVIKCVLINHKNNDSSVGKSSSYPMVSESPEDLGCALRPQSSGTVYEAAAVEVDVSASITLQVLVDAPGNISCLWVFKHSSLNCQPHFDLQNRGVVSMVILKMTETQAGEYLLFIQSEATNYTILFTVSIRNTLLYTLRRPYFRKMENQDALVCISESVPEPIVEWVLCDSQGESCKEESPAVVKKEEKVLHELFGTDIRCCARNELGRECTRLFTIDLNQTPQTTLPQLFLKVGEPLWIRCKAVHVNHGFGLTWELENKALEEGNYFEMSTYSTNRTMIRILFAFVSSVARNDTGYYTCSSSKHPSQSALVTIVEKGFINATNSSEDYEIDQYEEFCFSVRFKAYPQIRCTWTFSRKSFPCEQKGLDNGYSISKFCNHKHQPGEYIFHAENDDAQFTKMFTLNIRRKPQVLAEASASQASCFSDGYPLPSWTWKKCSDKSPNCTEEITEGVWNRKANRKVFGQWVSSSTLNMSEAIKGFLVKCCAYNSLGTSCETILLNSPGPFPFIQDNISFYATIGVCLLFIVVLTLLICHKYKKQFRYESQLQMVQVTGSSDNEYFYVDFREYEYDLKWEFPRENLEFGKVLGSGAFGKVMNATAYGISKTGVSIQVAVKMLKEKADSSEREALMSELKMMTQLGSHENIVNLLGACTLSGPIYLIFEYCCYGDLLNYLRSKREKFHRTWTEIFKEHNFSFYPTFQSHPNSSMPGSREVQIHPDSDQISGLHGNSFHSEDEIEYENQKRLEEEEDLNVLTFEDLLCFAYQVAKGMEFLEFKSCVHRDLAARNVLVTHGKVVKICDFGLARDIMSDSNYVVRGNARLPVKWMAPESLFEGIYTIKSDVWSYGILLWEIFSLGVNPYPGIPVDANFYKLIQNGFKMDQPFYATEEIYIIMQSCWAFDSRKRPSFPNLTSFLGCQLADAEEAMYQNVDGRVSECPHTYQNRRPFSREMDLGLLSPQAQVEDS

[2] = Cytotoxicity against human K562 cells assessed as cell growth inhibition measured after 72 hrs by CCK8 assay; format: toxicity, cell-based
MV4-11 [3] = assay: Induction of cell cycle arrest in human MV4-11 cells assessed as accumulation at G0/G1 phase at 0.1 uM measured after 24 hrs by flow cytometry (reference value: 64.29 %); format: functional
HepG2 = assay: Antiproliferative activity human HepG2 cells assessed as cell growth inhibition measured after 72 hrs by CCK8 assay; settings: HepG2, 72 h
MV4-11 [4] = assay: Induction of cell cycle arrest in human MV4-11 cells assessed as accumulation at G0/G1 phase at 2.5 uM measured after 24 hrs by flow cytometry (reference value: 64.29 %); format: functional
MV4-11 [5] = assay: Induction of apoptosis in human MV4-11 cells assessed as necrotic cells at 0.1 uM measured after 48 hrs by Annexin V-FITC/PI double staining based flow cytometric analysis (reference value: 5.67 %); format: functional

Question: For `C=CC(=O)Nc1ccc(NC(=O)Nc2ccc(-c3cc(C)nc4noc(N)c34)cc2)cc1`, which IC50 [1] is on record?
Answer: Its IC50 is 0.256 µM.

Question: What about the IC50 at 72 h [2] of the same molecule?
Answer: Its IC50 at 72 h is greater than 10 µM.

Question: And the Activity (MV4-11 [3])?
Answer: Its Activity is 67.6%.

Question: What about the IC50 (HepG2) of the same molecule?
Answer: Its IC50 is greater than 10 µM.

Question: What about the Activity (MV4-11 [4]) of the same molecule?
Answer: The Activity was 83%.

Question: And the Activity (MV4-11 [5])?
Answer: Its Activity is 4.51%.
